Test results from article PMC8856561, “Pharmacological and genetic activation of cAMP synthesis disrupts cholesterol utilization in Mycobacterium tuberculosis” (PLoS Pathogens, 2022).
Values after ≈ are worked out from the molar mass of the structure shown. Like-named read-outs stand apart in the source and are kept apart here.

Columns and labels:
Mtb [1] = test: microbe, parasite or virus in culture; format: cell-based; conditions: Mycobacterium tuberculosis; read-out: 7H9 OADC EC50
[2] = 0.98 µM, pH 7.2
Procedure: Liver microsomal stability
(§1) Liver microsomes from mouse (Xenotech), human (Corning) rat (Xenotech) and dog (Xenotech)
(§2) were prepared in potassium phosphate buf fer (100 mM) pH 7. 2. Experimental compounds were
(§3) dissolved in DMSO (100%) to a stock concentration of 10 mmol. A working compound solution
(§4) was made by diluting 5 µL of compound stock into 495 µL of acetonitrile (100%) to the final
(§5) concentration of compound (100 µM) and acetonitrile (99%). Similarly, positive control
(§6) compounds (Testosterone, Dichlofenac, and Propafenone) were dissolved in DMSO (100% to a
(§7) stock concentration of 10 mM in DMSO, and were diluted with 495 µL of acetonitrile (100%) to
(§8) the final concentration of compound (100 µM) and acetonitrile (99%). NADPH•4Na was dissolved
(§9) into a 10 mM MgCl2 solution (10 unit/mL) generating as a 10x cofactor stock. Pre-warmed
(§10) incubation plates were filled with 445 µL potassium phosphate buffer and incubated for 10 min at
(§11) 37°C with constant shaking. Liver microsomes (54 µL) liver and NADPH stock (6 µL) were added
(§12) to the plates. Working solution of compounds (5 µL) was added into the incubation plates
(§13) containing microsomes and mixed thoroughly before incubating at 37°C for 60 min under constant
(§14) shaking at 100 rpm. Reactions were stopped by the addition of 100 µl cold acetonitrile (100%) […]
(§15) prior to metabolite quantification by LC-MS/MS a nalysis. […]

[3] = 0.98 µM, pH 7.2; remark: listed apart in the source
Procedure: Liver microsomal stability
as §1, §2, §3, §4, §5, §6, §7, §8, §9, §10, §11, §12, §13
(§16) shaking at 100 rpm. Reactions were stopped by the addition of 100 µl cold acetonitrile (100%)
(§17) containing the internal standards tolbutamide (200 ng/mL) and labetalol (200 ng/mL). All plates
(§18) were shaken for 10 min, then centrifuged at 4000 rpm for 20 minutes at 4°C. The cell free
(§19) supernatant was transferred into HPLC water and mixed by shaking the plate for 10 min minutes
(§20) prior to metabolite quantification by LC-MS/MS a nalysis.
(§21) The equation of first order kinetics was used to calculate T1/2 and CLin t(mic ) (µL/min/mg):
Equation of first order kinetics:
(§22) <=@(#<S) X= Y<@Z[ \] #_⁄#‘ #<SZ[a[#$b cZ[@L<= <= ZL$S@<[=
𝐶𝐿 = 𝐶𝐿 ∙ #_ #<SZ[a[#La ∙ _ b<Y LZ
(§23) <=@(b<Y LZ) <=@(#<S) _ b<Y LZ D_ e[fg hL<_i@
(§24) T1/2 is half life and CLin t ( mic ) is the intrinsic clearance
(§25) CLin t ( mic ) = 0.693/half life/mg microsome protein per mL
(§26) CLin t(l iv e r) = CLin t ( mic ) * mg microsomal protein/g liver weight * g liver weight/kg body weight
Extraction ratio calculation
(§27) Extraction ratio (ER) = CLH/QH= CLint(liver) / (CLint(liver) + Qh)
Qh is Hepatic Blood Flow (mL/min/kg)

hERG potassium channel = hERG potassium channel (Homo sapiens, UniProt Q12809); test: Manual patch clamp assay for hERG inhibition
physchem = conditions: pH 6.8, aqueous buffer, kinetic from dmso stock
[4] = 0.98 µM, pH 7.2; remark: listed apart in the source
Procedure: Liver microsomal stability
as §1, §2, §3, §4, §5, §6, §7, §8, §9, §10, §11, §12, §13, §14, §15

Mtb [5] = test: microbe, parasite or virus in culture; format: cell-based; conditions: Mycobacterium tuberculosis; media with cholesterol and acetate
in vitro [6] = conditions: CD-1, mouse, plasma
[7] = 0.98 µM, pH 7.2; remark: listed apart in the source
Procedure: Liver microsomal stability
as §1, §2, §3, §4, §5, §6, §7, §8, §9, §10, §11, §12, §13, §16, §17, §18, §19, §20, §21
Equation of first order kinetics:
as §22
𝐶𝐿 = 𝐶𝐿 ∙ #_ #<SZ[a[#La ∙ _ b<Y LZ
as §23, §24, §25, §26
Extraction ratio calculation
as §27
Qh is Hepatic Blood Flow (mL/min/kg)

Mtb [8] = test: microbe, parasite or virus in culture; format: cell-based, Mycobacterium tuberculosis; conditions: Mycobacterium tuberculosis, cholesterol media
Erdman Mtb [9] = test: Mouse infection, BALB/c; format: in vivo, BALB/c mice
in vitro [10] = conditions: human, plasma
in vitro [11] = conditions: human
in vitro [12] = conditions: human; remark: listed apart in the source
[13] = test system: Mtb in murine macrophages; test: Mtb replication in macrophages (intramacrophage EC50); format: cell-based; conditions: Mycobacterium tuberculosis, Macrophage
[14] = test system: CYP1A2, CYP2C9, CYP2C19, CYP2D6, CYP3A4; test: in vitro; conditions: human, pH 7.2
Mtb [15] = test: Quantification of bacterial cAMP in Mtb; format: cell-based, Mycobacterium tuberculosis
Mtb [16] = format: cell-based, Mycobacterium tuberculosis; conditions: for 14CO2 release from [4-14C]-cholesterol: 10 μM
Erdman Mtb [17] = test: Mouse infection, C3HeB/FeJ; format: in vivo, C3HeB/FeJ mice; conditions: 50 mg/kg oral once-daily weeks 4-8, intranasal infection
MKR strain of Mtb = test system: MKR strain of Mtb; parameters: method as in PMID 33542438; conditions: infected macrophages ref 13; cited from earlier work
Mtb [18] = format: cell-based, Mycobacterium tuberculosis; conditions: media containing fatty acid
Mtb [19] = format: cell-based, Mycobacterium tuberculosis; conditions: 10 μM
[20] = 30mg/kg oral once-daily weeks 4-8, intranasal infection, BALB/c
[21] = 50 mg/kg oral once-daily weeks 4-8, intranasal infection, BALB/c

Sequence of hERG potassium channel (Q12809 whole entry): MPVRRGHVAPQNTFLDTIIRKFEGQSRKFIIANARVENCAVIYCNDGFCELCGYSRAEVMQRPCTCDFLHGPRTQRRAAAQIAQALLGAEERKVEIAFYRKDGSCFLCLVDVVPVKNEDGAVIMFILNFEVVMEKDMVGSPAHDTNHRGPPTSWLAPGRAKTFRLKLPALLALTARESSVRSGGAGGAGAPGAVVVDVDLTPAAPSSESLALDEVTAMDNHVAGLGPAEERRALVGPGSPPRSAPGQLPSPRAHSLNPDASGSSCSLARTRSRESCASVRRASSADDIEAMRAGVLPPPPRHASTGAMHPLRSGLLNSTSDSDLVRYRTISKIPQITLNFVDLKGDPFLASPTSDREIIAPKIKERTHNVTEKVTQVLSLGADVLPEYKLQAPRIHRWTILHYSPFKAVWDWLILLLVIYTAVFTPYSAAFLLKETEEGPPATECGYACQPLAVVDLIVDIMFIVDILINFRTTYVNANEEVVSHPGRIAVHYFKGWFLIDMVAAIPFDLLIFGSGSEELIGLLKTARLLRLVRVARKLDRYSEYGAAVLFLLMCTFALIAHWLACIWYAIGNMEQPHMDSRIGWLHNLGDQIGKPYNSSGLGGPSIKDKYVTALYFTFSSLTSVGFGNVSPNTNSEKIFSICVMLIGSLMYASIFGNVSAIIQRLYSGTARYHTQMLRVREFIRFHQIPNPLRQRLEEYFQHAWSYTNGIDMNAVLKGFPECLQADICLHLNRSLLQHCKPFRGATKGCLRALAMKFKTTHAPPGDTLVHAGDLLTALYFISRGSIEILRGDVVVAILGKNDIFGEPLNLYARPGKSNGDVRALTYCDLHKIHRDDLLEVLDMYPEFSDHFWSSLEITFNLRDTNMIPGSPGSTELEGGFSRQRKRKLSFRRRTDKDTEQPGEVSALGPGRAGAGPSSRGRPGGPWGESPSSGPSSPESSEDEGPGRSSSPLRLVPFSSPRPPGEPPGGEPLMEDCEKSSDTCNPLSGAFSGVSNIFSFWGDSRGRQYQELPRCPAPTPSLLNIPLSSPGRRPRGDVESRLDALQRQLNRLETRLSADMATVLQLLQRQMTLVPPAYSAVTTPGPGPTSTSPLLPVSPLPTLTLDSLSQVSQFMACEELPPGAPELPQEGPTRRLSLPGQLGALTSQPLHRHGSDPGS

SMILES | EC50 (Mtb [1]) | ER dog [2] | ER mouse [3] | IC50 (hERG potassium channel) | solubility at 24 h (physchem) | ER rat [4] | EC50 (Mtb [5]) | fraction unbound at 4 h (in vitro [6]) | ER human [7] | EC50 (Mtb [8]; read-out: Cholesterol EC50) | fraction unbound at 4 h (in vitro [10]) | CC50 at 72 h (in vitro [11]) | CC50 at 72 h (in vitro [12]) | EC50 [13] | IC50 at 10 min [14] | also measured
Cn1ncnc1CC(=O)N1CCC(c2nc(-c3ccc(Cl)c(Cl)c3)no2)CC1 [mCLB073, 1-(4-(3-(3,4-dichlorophenyl)-1,2,4-oxadiazol-5-yl)-1-piperidinyl)-2-(2-methyl-2H-1,2,4-triazol-3-yl)-1-ethanone] | > 50 µM | 0.3 | 0.3 | 13.8 µM | 160 µM (≈ 67.4 µg/mL) | 0.2 | > 50 µM | 0.037 | 0.3 | 0.027 µM | 0.024 | > 20 µM | > 20 µM | 1.2 µM | > 50 µM | decrease of extent of lung pathology (Erdman Mtb [9]; [20]): ~ 45%; reduction in lung CFUs (Erdman Mtb [9]; [20]): ~ 0.4 log10; bacterial burden in the lungs when added to a sub-optimal dose of rifampicin (Erdman Mtb [9]; mouse, in vivo): did not increase the bacterial burden; reduction in lung CFUs (Erdman Mtb [9]; mouse, in vivo): ~ 0.4 log10; cAMP synthesis (Mtb [15]; Figs 3B and S2C): activates cAMP synthesis
Cc1nonc1CC(=O)N1CCC(c2nc(-c3ccc(F)cc3)no2)CC1 [mCIS635] | > 50 µM |  | 0.4 | 9.5 µM | 34.4 µM (≈ 12.8 µg/mL) |  | > 50 µM | 0.056 | 0.3 | 0.15 µM |  | > 20 µM | > 20 µM | 0.27 µM | > 50 µM | 
Cc1nonc1CC(=O)N1CCC(n2nnc(-c3ccc(F)cc3)n2)CC1 [V-59, 1-(4-(5-(4-fluorophenyl)-2H-tetrazol-2-yl)piperidin-1-yl)-2-(4-methyl-1,2,5-oxadiazol-3-yl)ethan-1-one] | > 50 µM |  | 0.3 | 8.9 µM | 4.63 µM (≈ 1.72 µg/mL) |  | > 50 µM | 0.173 | 0.3 |  |  | > 20 µM | > 20 µM | 0.3 µM | > 30 µM | decrease of 14CO2 release from [4-14C]-cholesterol (Mtb [16]): ~ 89%; 14CO2 release from [4-14C]-cholesterol (Mtb [16]; CompD204 strain lacking cyclase domain): did not prevent; 14CO2 release from [4-14C]-cholesterol (Mtb [16]; CompFull strain): inhibited; reduction in lung CFUs (Erdman Mtb [17]): ~ 0.5 log10; intracellular survival of MKR strain (MKR strain of Mtb): selectively reduced intracellular survival; 14CO2 released from breakdown of [U-14C]-palmitate (Mtb [18]): no measurable effect; decrease of prpD'::GFP signal (Mtb [19]; CompFull strain): ~ 90%; decrease of prpD'::GFP signal (Mtb [19]; WT): ~ 50%; prpD'::GFP signal (Mtb [19]; ΔRv1625c or CompD204 strains, cholesterol media or macrophage infection): did not impact; EC50 (Mtb [8]; read-out: EC50 in cholesterol media): 0.7 µM; reduction in lung CFUs (Erdman Mtb [9]; [21]): ~ 0.4 log10; reduction of extent of lung inflammation (Erdman Mtb [9]; [21]): ~ 50%; cAMP induction (Mtb [15]): ~ 70 fold; cAMP induction (Mtb [15]; CompFull strain, 24 hours): ~ 140 fold
Cn1ncnc1CC(=O)N1CC2CC1CC2c1nc(-c2ccc(Cl)c(F)c2)no1 (centres unmarked) [mCLF178] | > 50 µM | 0.3 | 0.3 | 22.9 µM | 186 µM (≈ 77.5 µg/mL) | 0.2 |  | 0.116 | 0.3 | 0.083 µM | 0.111 | > 20 µM | > 20 µM | > 20 µM | > 30 µM | 
